Experimental data: the RepoRT retention time repository

Test: RP, Waters ACQUITY UPLC BEH C8, 100 × 2.1 mm, 1.7 µm, 55 °C, 0.6 mL/min, estimated dead time 0.37 min; A: 50% water + 25% acetonitrile + 25% isopropanol + 0.05% acetic acid + 20 µM phosphoric acid + 5 mM ammonium acetate; B: 50% acetonitrile + 50% isopropanol + 0.05% acetic acid + 5 mM ammonium acetate; gradient (min/%B) 0/1 0.1/1 2/30 11.5/90 12/99.9 12.5/99.9 12.55/65 12.65/30 12.75/1 12.95/1 13.25/1
Conditions: stereoisomer not certain

| SMILES | LC retention time |
| --- | --- |
| CCCCCCCCCCCCCCCC(=O)OCC(COP(=O)([O-])OCC[N+](C)(C)C)OC(=O)CCCCCCCCCCCCCCC (stereo not drawn) [PC(16:0/16:0)] | 6.38 min |
| CCCCCCCCCCCCCCCCC(=O)OC(COC(=O)CCCCCCCCCCCCCCC)COP(=O)([O-])OCC[N+](C)(C)C (stereo not drawn) [PC(16:0/17:0)] | 6.63 min |
| CCCCCCCCCCCCCCCCCC(=O)OCC(COP(=O)([O-])OCC[N+](C)(C)C)OC(=O)CCCCCCCCCCCCCCCCC (stereo not drawn) [PC(18:0/18:0)] | 7.67 min |
| CCCCCCCCCCCCCCCCOCC(COP(=O)([O-])OCC[N+](C)(C)C)OC(=O)CCCCCCCCCCCCC (stereo not drawn) [PC(O-16:0/14:0)] | 6.13 min |
| CCCCCCCCCCCCCCCCOCC(COP(=O)([O-])OCC[N+](C)(C)C)OC(=O)CCCCCCCCCCCCCC (stereo not drawn) [PC(O-16:0/15:0)] | 6.47 min |
| CCCCCCCCCCCCCCCCCCOCC(COP(=O)([O-])OCC[N+](C)(C)C)OC(=O)CCCCCCCCCCCCCCC (stereo not drawn) [PC(O-18:0/16:0)] | 7.47 min |
| CC(C=CC1=C(C)CCCC1(C)C)=CC=CC(C)=CCO [Retinol] | 2.3 min |
| CCCCCCCCCCCC=CC(O)C(COP(=O)([O-])OCC[N+](C)(C)C)NC(=O)CCCCCCCCCCCCCCCCCCC (stereo not drawn) [SM(d16:1/20:0)] | 6.5 min |
| CCCCCCCCCCCCCCCC(=O)NC(COP(=O)([O-])OCC[N+](C)(C)C)C(O)CCCCCCCCCCCCCCC (stereo not drawn) [SM(d18:0/16:0)] | 5.94 min |
| CCCCCCCCCCCCCC=CC(O)C(COP(=O)([O-])OCC[N+](C)(C)C)NC(=O)CCCCCCCCCCCCCCC (stereo not drawn) [SM(d18:1/16:0)] | 5.68 min |
| CCCCCCCCCCCCCC=CC(O)C(COP(=O)([O-])OCC[N+](C)(C)C)NC(=O)CCCCCCCCCCCCCCCCC (stereo not drawn) [SM(d18:1/18:0)] | 6.41 min |
| CCCCCCCCCCCCCC=CC(O)C(COP(=O)([O-])OCC[N+](C)(C)C)NC(=O)CCCCCCCCCCCCCCCCCCC (stereo not drawn) [SM(d18:1/20:0)] | 7.12 min |
| CCCCCCCCCCCCCC=CC(O)C(COP(=O)([O-])OCC[N+](C)(C)C)NC(=O)CCCCCCCCCCCCCCCCCCCCCCC (stereo not drawn) [SM(d18:1/24:0)] | 8.4 min |
| CCCCCCCCCCCCCCC=CC(O)C(COP(=O)([O-])OCC[N+](C)(C)C)NC(=O)CCCCCCCCCCCCCCCCC (stereo not drawn) [SM(d19:1/18:0)] | 6.66 min |
| CCCCCCCCCCCCCC=CC(O)C(N)COP(=O)(O)O (stereo not drawn) [Sphingosine-1-phosphate] | 1.52 min |

Results, then the molecule that gave them:

| LC retention time | SMILES |
| --- | --- |
| 6.81 min | CCCCCCCCCCCCCCCCOCC(COP(=O)([O-])OCC[N+](C)(C)C)OC(=O)CCCCCCCCCCCCCCC (stereo not drawn) [PC(O-16:0/16:0)] |
| 1.75 min | CCCCCCCCCCCCCCCC(=O)OC(CC(=O)[O-])C[N+](C)(C)C (stereo not drawn) [Palmitoylcarnitine CAR(16:0)] |
| 7.23 min | CCCCCCCCCCCC=CC(O)C(COP(=O)([O-])OCC[N+](C)(C)C)NC(=O)CCCCCCCCCCCCCCCCCCCCC (stereo not drawn) [SM(d16:1/22:0)] |
| 7.57 min | CCCCCCCCCCCC=CC(O)C(COP(=O)([O-])OCC[N+](C)(C)C)NC(=O)CCCCCCCCCCCCCCCCCCCCCC (stereo not drawn) [SM(d16:1/23:0)] |
| 7.9 min | CCCCCCCCCCCC=CC(O)C(COP(=O)([O-])OCC[N+](C)(C)C)NC(=O)CCCCCCCCCCCCCCCCCCCCCCC (stereo not drawn) [SM(d16:1/24:0)] |
| 7.79 min | CCCCCCCCCCCCCC=CC(O)C(COP(=O)([O-])OCC[N+](C)(C)C)NC(=O)CCCCCCCCCCCCCCCCCCCCC (stereo not drawn) [SM(d18:1/22:0)] |
| 8.1 min | CCCCCCCCCCCCCC=CC(O)C(COP(=O)([O-])OCC[N+](C)(C)C)NC(=O)CCCCCCCCCCCCCCCCCCCCCC (stereo not drawn) [SM(d18:1/23:0)] |
| 5.95 min | CCCCCCCCCCCCCCC=CC(O)C(COP(=O)([O-])OCC[N+](C)(C)C)NC(=O)CCCCCCCCCCCCCCC (stereo not drawn) [SM(d19:1/16:0)] |
| 2.3 min | CCCCCCCCCCCCCCCCCC(=O)OC(CC(=O)[O-])C[N+](C)(C)C (stereo not drawn) [Stearoylcarnitine CAR(18:0)] |
| 4.34 min | CCCCCCCCCCCCCCCCCCCCCCCC(=O)OC(CC(=O)[O-])C[N+](C)(C)C (stereo not drawn) [Tetracosanoylcarnitine CAR(24:0)] |
| 1.26 min | CCCCCCCCCCCCCC(=O)OC(CC(=O)[O-])C[N+](C)(C)C (stereo not drawn) [Tetradecanoylcarnitine CAR(14:0)] |
| 3.6 min | CC(C=CC=C(C)C=CC1=C(C)CC(O)CC1(C)C)=CC=CC=C(C)C=CC=C(C)C=CC1=C(C)CC(O)CC1(C)C (stereo not drawn) [Zeaxanthin] |
| 8.28 min | CC(C)=CCCC(C)=CCCC(C)=CC=CC(C)=CC=CC=C(C)C=CC=C(C)CCC=C(C)CCC=C(C)C [Zeta-carotene] |
